According to US5798447A, “Antibodies specific for D-myo-inositol 1, 4, 5-trisphosphate and the enzyme-linked immunosorbent assay of D-myo-inositol 1, 4, 5-trisphosphate” (The Board of Governors for Higher Education State of Rhode …, priority 1996, dated 1998):
“Also recorded” adds a separate entry of the source.

Assays:
[1] = test system: affinity-purified Ins(1,4,5)P3-specific antibodies; test: Inhibition of binding of affinity-purified antibodies to immobilized Ins(1,4,5)P3 by ions; parameters: species or system New Zealand White rabbit; conditions: for IC50: affinity-purified antibodies, preincubation 30 minutes, room temperature, read-out: IC50 for inhibition of antibody binding to immobilized Ins(1,4,5)P3; for inhibition of / interference with antibody binding to immobilized Ins(1,4,5)P3: concentration not stated with the result, or 'high concentrations'; for inhibition of antibody recognition by cations: concentrations up to 100 mM; for interference with antibody binding to immobilized Ins(1,4,5)P3: up to 0.3 mM
Procedure: (§1) The presence of anti-Ins(1,4,5)P3 antibodies in rabbit serum was detected by an ELISA. Ins(1,4,5)P3 (hapten) was covalently attached to microtiter plates through a C-6 linker by adding 6-O-(ω-Aminohexyl)-D-myo-inositol 1,4,5-triphosphate (1) (1.25 μg in 0.1 ml of phosphate buffered saline (PBS) per well) to maleic anhydride-activated polystyrene plates (Pierce). This anhydride-activated plate allows direct coupling of amine-bearing molecules to the well surface, (Pierce Chemical Co. Instruction 15110X (1992) REACTI-BIND™ Maleic Anhydride Activated Polystyrene Plates), and obviates the need for a carrier protein to immobilize haptens. The plate was incubated at room temperature overnight, and each well was blocked by adding 0.12 ml of SUPERBLOCK ™ blocking solution in PBS (Pierce). After 10 minutes at room temperature, the plate was washed twice with 0.05% Tween-20 in 10 mM Tris/HCl containing 0.85% NaCl, pH 7.2 (TBS), followed by TBS buffer twice. Rabbit antiserum (antibodies) diluted in TBS buffer containing 0.1% gelatin was added (95 μl per well). The plate was incubated at 37° C. for 2 hours, and washed as stated above. Specific antibody binding was assessed by adding goat anti-rabbit IgG-HRP conjugate (1/200 dilution in TBS containing 0.1% gelatin; 90 μl per well), and the plate was incubated for another 2 hours at 37° C. After the plate was washed again, the peroxidase substrate solution (90 μl per well) containing 2 mM 2,2'-azinobis(3-ethyl-benzthiazoline-6-sulfonic acid), 2.5 mM hydrogen peroxide, and 50 mM citrate buffer, with a final pH of 5.0, was added. The reaction was incubated at room temperature for 15-20 minutes, and terminated by adding 20 μl of 5% SDS to each well. The absorbance at 415 nm was measured by a microtiter plate reader. Rabbit serum taken before immunization was used as a control in all the assays, from which the absorbance values obtained served as a blank for the correction of experimental data.
Referring to FIG. 3, the affinity-purified antibodies were preincubated with individual multivalent ions at indicated concentrations for 30 minutes at room temperature before added to the (1,4,5)IP3 immobilized EIA plates. […] The assay for the binding inhibition was the same as that described for the ELISA in the Experimental Procedures. Percentage maximal antibody binding is expressed by B/Bo, where B=absorbance with inhibitor and Bo =absorbance without inhibitor. Each data point represents the means of three determinations.

[2] = test system: IP3 -C5 -BSA induced antibodies (anti-Ins(1,4,5)P3 antiserum); test: Competitive ELISA: immobilized Ins(1,4,5)P3 vs competitor, IP3-C5-BSA induced antiserum; type: binding, New Zealand White rabbit; conditions: for IC50: competitive ELISA, read-out: [Competitor] (M) at half maximal absorbance (B/Bo = 0.5) or IC50
Procedure: (§2) New Zealand White female rabbits were immunized with 1 mg of the IP3 -BSA conjugate in 0.5 ml of saline emulsified with an equal volume of Freund's complete adjuvant by five to six subcutaneous injections at the back and both flanks. Booster injections were given with the same amounts of the IP3 -BSA prepared with incomplete Freund's adjuvant at monthly intervals. After the second boost, the animals were bled from the ear vein 2 weeks after each booster injection. The antisera thus prepared were stored at -20° C. until used.
as §1
(§3) The avidity and specificity of these antisera were examined by competitive ELISA experiments between immobilized Ins(1,4,5)P3 and various inositol phosphates.
(§4) Table 1 Avidity of antisera toward various inositol phosphates and
(§5) PIP2. The avidity is expressed as the concentrations at halfmaximal
(§6) absorbance (B/Bo = 0.5) in the competitive ELISA experiments.

[3] = test system: IP3 -C6 -NC5 -BSA induced antibodies (anti-Ins(1,4,5)P3 antiserum); test: Competitive ELISA: immobilized Ins(1,4,5)P3 vs competitor, IP3-C6NC5-BSA induced antiserum; type: binding, New Zealand White rabbit; conditions: for IC50: IP3-C6-NC5-BSA induced antibodies, competitive ELISA, read-out: [Competitor] (M) at half maximal absorbance (B/Bo = 0.5) or IC50
Procedure: as §2, §1, §3, §4, §5, §6

[4] = test system: affinity-purified Ins(1,4,5)P3-specific antibodies (from IP3 -C5 -BSA induced antiserum); test: Competitive ELISA with affinity-purified Ins(1,4,5)P3-specific antibodies and inositol phosphates; type: binding, New Zealand White rabbit
Procedure: as §1
The antiserum (5.2 ml) was applied to an ECONO-PAC ™ protein A cartridge (5 ml, Bio-Rad) equilibrated with 100 mM Tris/HCl, pH 8.0. The column was washed with, in sequence, 20 ml of the equilibrating buffer, and 25 ml of 10 mM Tris/HCl, pH 8.0. The bound IgG was eluted with 25 ml of 100 mM glycine buffer, pH 3.0, at a flow rate of 0.5 ml/min. Fractions of 1.7 ml were collected in tubes containing 100 μl of 1M Tris/HCl, pH 8.0.
The dialyzed solution from step 1 was applied to a Ins(1,4,5)IP3 -agarose column (5.8 ml bed volume) equilibrated with 10 mM Tris/HCl, pH 7.5. The column was washed with the equilibration buffer followed by 500 mM NaCl in the same buffer. The absorbed proteins were eluted with, in sequence, 50 ml of 100 mM glycine buffer, pH 3.5, 10 ml of 10 mM Tris/HCl, pH 8.8, and 50 ml of 100 mM NaHCO3 /Na2 CO3 buffer, pH 10.5 Fractions of 1.7 ml were collected. For the eluate with the glycine buffer and with the NaHCO3 /Na2 /CO3 buffer, fractions were collected in tubes containing 100 μl of 1M Tris/HCl, pH 8.0, and 700 μl of 1M Tris/HCl, pH 7.6, respectively.
Referring to FIG. 2, the displacement curves were generated from competitive ELISA experiments between immobilized (1,4,5)IP3 and various inositol phosphates shown in the insert. The antibodies were preincubated with individual competitors at various concentrations for 30 minutes at room temperature before added to the (1,4,5)IP3 immobilized EIA plates. The assay for the competitive binding was the same as that described for the ELISA under "Experimental Procedures". Percentage total specific binding is expressed by B/Bo, where B=absorbance with competitor and Bo =absorbance without competitor. Each data point represents the means of three determinations. For clarity, the standard deviations were not shown.

Ins(1,4,5)P3 receptors = conditions: Wilcox et al. 1993, cited from earlier work; for IC50: read-out: IC50 for displacing [3H]Ins(1,4,5)P3 binding from Ins(1,4,5)P3 receptors

Compound | inhibition of / interference with antibody binding to immobilized Ins(1,4,5)P3 [1] | IC50 ([2]; IP3-C5-BSA induced antibodies) [M] | IC50 [3] [M] | lower affinity relative to Ins(1,4,5)P3 ([3]; both antiserum preparations) | other results
N.N.O=S(=O)(O)O [(NH4)2 SO4] |  |  |  |  | binding capability of antibodies after (NH4)2SO4 precipitation ([1]; even after extensive dialysis): complete loss of binding capability
Nc1ncnc2c1ncn2[C@@H]1O[C@H](COP(=O)(O)OP(=O)(O)OP(=O)(O)O)[C@@H](O)[C@H]1O [ATP^4 -] | could be disrupted |  |  |  | IC50 [1]: 210 µM
Cl [C1-] | no appreciable interference |  |  |  | 
O=P(O)(O)O [HPO4^2 -] | could be disrupted |  |  |  | IC50 [1]: 2610 µM
O=P(O)(O)O[C@H]1[C@H](OP(=O)(O)O)[C@@H](OP(=O)(O)O)[C@H](OP(=O)(O)O)[C@@H](OP(=O)(O)O)[C@H]1OP(=O)(O)O [IP6, Phytic acid] |  | 0.0008 | 0.00015 | two to four orders of magnitude | 
O=P(O)(O)OC1[C@H](O)[C@H](O)C(O)[C@H](O)[C@H]1O (stereo partly shown) [Ins(1)P1] |  |  | 0.00042 | two to four orders of magnitude | 
O=P(O)(O)O[C@H]1[C@H](OP(=O)(O)O)[C@@H](OP(=O)(O)O)[C@H](O)[C@@H](O)[C@H]1OP(=O)(O)O [Ins(1,2,5,6)P4] |  | 7.1e-05 | 2.1e-05 | two to four orders of magnitude | 
O=P(O)(O)O[C@H]1[C@H](O)[C@@H](O)[C@H](OP(=O)(O)O)[C@@H](OP(=O)(O)O)[C@H]1O [Ins(1,3,4)P3] |  | 1e-05 | 1.7e-06 | two to four orders of magnitude | IC50 [4]: 39 µM; IC50 relative to that of Ins(1,4,5)P3 [4]: three orders or magnitude higher; decrease in affinity compared with IP3-C6NC5-BSA induced antiserum ([2]; IP3-C5-BSA induced antibodies): 10 fold
O=P(O)(O)O[C@H]1[C@H](O)[C@@H](OP(=O)(O)O)[C@H](OP(=O)(O)O)[C@@H](OP(=O)(O)O)[C@H]1O [Ins(1,3,4,5)P4] |  | 7.1e-08 | 2e-07 |  | IC50 [4]: 0.73 µM; differential affinity, ratio of IC50 values Ins(1,3,4,5)P4 / Ins(1,4,5)P3 [4]: 60 fold; binding compared with IP3-C6NC5-BSA induced antiserum ([2]; IP3-C5-BSA induced antibodies): stronger binding; ratio of IC50[Ins(1,3,4,5)P4] to IC50[Ins(1,4,5)P3] ([2]; antiserum against IP3-C5-BSA): 2.3; differential affinity, ratio of IC50 values before purification ([2]; antiserum before affinity purification): 2 fold; ratio of IC50[Ins(1,3,4,5)P4] to IC50[Ins(1,4,5)P3] ([3]; antiserum against IP3-C6NC5-BSA): 2.2; affinity relative to Ins(1,4,5)P3 ([3]; both antiserum preparations): one-third of the affinity; weaker than Ins(1,4,5)P3 at displacing specific [3H]Ins(1,4,5)P3 binding (Ins(1,4,5)P3 receptors): about 40 fold; IC50 (Ins(1,4,5)P3 receptors): 0.762 µM
O=P(O)(O)OC1C(O)C(OP(=O)(O)O)C(OP(=O)(O)O)C(OP(=O)(O)O)C1OP(=O)(O)O (stereo not shown) [Ins(1,3,4,5,6)P5] |  |  |  |  | IC50 [4]: 45 µM; IC50 relative to that of Ins(1,4,5)P3 [4]: three orders or magnitude higher
O=P(O)(O)O[C@@H]1[C@H](O)[C@H](O)[C@@H](OP(=O)(O)O)[C@H](OP(=O)(O)O)[C@H]1O [Ins(1,4,5)P3, D-myo-inositol 1,4,5-trisphosphate] |  | 3.1e-08 | 8.9e-08 |  | IC50 [4]: 0.012 µM; binding compared with IP3-C6NC5-BSA induced antiserum ([2]; IP3-C5-BSA induced antibodies): stronger binding; IC50 (Ins(1,4,5)P3 receptors): 0.0207 µM
O=P(O)(O)O[C@H]1[C@H](OP(=O)(O)O)[C@H](O)[C@H](O)[C@@H](O)[C@@H]1OP(=O)(O)O [Ins(1,5,6)P3] |  |  |  | two to four orders of magnitude | order of affinity toward various inositol phosphates ([3]; IP3-C6NC5-BSA induced antiserum): Ins(3,4,5,6)P4 >Ins(1,5,6)P3, PIP2, Ins(1,2,5,6)P4 >Ins(4,5)P2
O=P(O)(O)O[C@H]1[C@H](OP(=O)(O)O)[C@@H](OP(=O)(O)O)[C@@H](O)[C@@H](O)[C@@H]1OP(=O)(O)O [Ins(3,4,5,6)P4] |  | 6.3e-06 | 4.5e-06 | two to four orders of magnitude | 
O=P(O)(O)O[C@@H]1[C@@H](O)[C@H](O)[C@H](O)[C@H](O)[C@H]1OP(=O)(O)O [Ins(4,5)P2] |  | 2.5e-05 | 3.8e-05 | two to four orders of magnitude | IC50 [4]: 14 µM; IC50 relative to that of Ins(1,4,5)P3 [4]: three orders or magnitude higher
[K+] [K+] | did not affect the binding |  |  |  | inhibition of antibody recognition by cations [1]: did not cause significant inhibition
[N-]=[N+]=[N-] [N3 -] | no appreciable interference |  |  |  | 
N [NH4 +] |  |  |  |  | inhibition of antibody recognition by cations [1]: did not cause significant inhibition
[Na+] [Na+] | no inhibiting effect; also recorded: did not affect the binding |  |  |  | inhibition of antibody recognition by cations [1]: did not cause significant inhibition
O=S(=O)(O)O [SO4^2 -] | could be disrupted |  |  |  | IC50 [1]: 11600 µM
NC(CO)(CO)CO [Tris] |  |  |  |  | inhibition of antibody recognition by cations [1]: did not cause significant inhibition
PIP2 |  | 3.2e-05 | 1.6e-05 | two to four orders of magnitude | IC50 [4]: 14 µM; IC50 relative to that of Ins(1,4,5)P3 [4]: three orders or magnitude higher
heparin |  |  |  |  | interference with antibody binding to immobilized Ins(1,4,5)P3 [1]: not affected; interference with antibody binding to immobilized Ins(1,4,5)P3 ([1]; listed as haparin): no appreciable interference
